Assay results taken from patent US11752159B2, “Compositions and methods for suppressing or reducing systemic immune response in a subject” (THE TRUSTEES OF THE UNIVERSITY OF PENNSYLVANIA, priority 2015, dated 2023).

Key:
TSLP = assay: Systemic TSLP induction by topical vitamin D3 analogs (ELISA); format: in vivo, mice; conditions: for serum TSLP levels: topical, ear skin bilaterally, 2 nmol/ear in ethanol, after 5 days of treatment
[1] = Toxicity (morbidity and mortality) of topical vitamin D3 analogs in mice; format: in vivo; conditions: for dose at which morbidity and mortality of mice was not observed: topical; for toxicity at 2 nmol/ear: topical 2 nmol/ear
Description: (§1) VDR stimulation of keratinocytes led to TSLP production, which in certain embodiments caused increase in Treg numbers. The effects of two vitamin D3 analogs (22-Oxacalcitriol, also known as 22-OXA, and EB1089) on TSLP production and Treg numbers were evaluated. Similarly to MC903, 22-OXA and EB1089 were applied to the ear skin bilaterally at a dose of 2 nmol/ear dissolved in ethanol. After 5 days of treatment, the mice were bled and serum TSLP levels were measured. […] To avoid the toxic effect, the dose of 22-OXA and EB1089 was lowered to a point where morbidity and mortality of mice was not observed (0.4 nmol/ear for 22-OXA; 0.04 nmol/ear for EB1089). At this dose, no increase in TSLP level was detected in 22-OXA-treated mice (FIG. 9B).

Tregs = assay: Treg % in blood and spleen after topical vitamin D3 analogs; format: in vivo, mice; conditions: topical 0.04 nmol/ear
Text: FIGS. 10A-10B comprise bar graphs illustrating data derived from topically treating mice with EtOH or EB1089 (0.04 nmol/ear) for 5 days and bleeding them on Day 7. Treg % from (FIG. 10A) blood and (FIG. 10B) spleen are illustrated. N=3 mice/group. *p<0.01 by Student t-test.
as §1

SMILES	TSLP level at 0.4 nmol/ear (TSLP; topical 0.4 nmol/ear)	serum TSLP levels (TSLP)	dose at which morbidity and mortality of mice was not observed [1] [nmol/ear]	toxicity at 2 nmol/ear [1]	blood Tregs (Tregs)	splenic Treg numbers (Tregs)	TSLP level at 0.04 nmol/ear (TSLP; topical 0.04 nmol/ear)
C=C1/C(=C\C=C2/CCC[C@]3(C)[C@@H]([C@H](C)OCCC(C)(C)O)CC[C@@H]23)C[C@@H](O)C[C@@H]1O [22-OXA, 22-oxa-1α,25(OH)2D3]	no increase	induced detectable amounts of TSLP	0.4	toxicity-related morbidity and mortality	–	–	–
C=C1/C(=C\C=C2/CCC[C@]3(C)[C@@H]([C@H](C)/C=C/C=C/C(O)(CC)CC)CC[C@@H]23)C[C@@H](O)C[C@@H]1O [EB1089, 1(S),3(R)-dihydroxy-20(R)-(5′-ethyl-5′-hydroxy-hepta-1′(E),3′(E)-dien-1′-yl)-9,10-secopregna-5(Z),7(E),10(19)-triene]	–	induced detectable amounts of TSLP	0.04	toxicity-related morbidity and mortality	only a subtle increase	did not have any effect	some TSLP was detectable
